Results on 2 compounds are retold here after PMC10932281, “A Combination of β-Aescin and Newly Synthesized Alkylamidobetaines as Modern Components Eradicating the Biofilms of Multidrug-Resistant Clinical Strains of Candida glabrata” (International Journal of Molecular Sciences, 2024).

In data set [1] the test system is C. glabrata 2853 clinical strain. Put plainly: MIC90/MFC, EUCAST broth microdilution. The format is cell-based, Candida glabrata. For orientation: In broth dilution the organism is exposed to a series of concentrations in liquid medium.
A further data set deals with C. glabrata 2853 biofilm. As to the kind of experiment: Biofilm eradication on polystyrene, fluorescence microscopy (Syto9/PI). The format is cell-based, Candida glabrata. How it is done:
(§1) C. glabrata biofilm eradication on polystyrene surfaces was assessed according to the following procedure: 1 mL of C. glabrata culture, 10^6 CFU/mL in RMPI 1640 MOPS-buffered medium, was pipetted into the wells of a 48-well adherent plate. Cultures were incubated at 37 °C for 72 h with shaking (400 RPM). […] Non-treated cells were used as the control. This experiment was carried out in triplicate. The analysis of the biofilm eradication of C. glabrata strains on polystyrene surfaces was performed using fluorescence microscopy (FM). For further information, see Section 4.12. below.
(§2) The 72 h biofilm of C. glabrata strains on polystyrene surfaces was stained on 48-well adherent plates with 1 µL of propidium iodide (Ex λ = 543 nm/Em λ = 617 nm) and 1 µL of SYTO9 (Ex λ = 488 nm/Em λ = 503 nm) for 30 min using a LIVE/DEAD BacLight Bacterial Viability Kit (Thermo Fisher Scientific, Waltham, MA USA). Imaging was performed using a fluorescence microscope (FM) BX51 (Olympus, Tokyo, Japan) equipped with an Orca Flash 40 camera (Hamamatsu, Hamamatsu City, Japan) and 10× objective Plan APO. Scale bar = 100 µm. Detailed computer qualitative and quantitative analyses of the obtained pictures were performed by estimating the coverage area on the polystyrene plate (the percentage of the area occupied by the fungal biofilm). The cell viability analysis was performed by calculating the fluorescence intensity of the dyes (Syto9/PI) used. The acquired images were processed and analyzed using Fiji/ImageJ software ver. 1.53c (NIH, Bethesda, MD, USA). First, maximum intensity projections (MIPs) were obtained from stacks of images. The areas of the binary images were transferred into the original live and dead channel MIP images. The mean fluorescence intensities of all detected objects per field of view were calculated using ImageJ’s Analyze Threshold function (Software: ImageJ version 1.53 from Softonic).

Data set [2] concerns C. glabrata ATCC 90030 biofilm. The description is as above. The format is cell-based, Candida glabrata. How it is done:
as §1, §2

Another data set has as its system C. glabrata 2586 biofilm. The data set is described as above. Format: cell-based, Candida glabrata. As for the experimental part: as §1, §2
For data set [3], the system named is Balb/3T3 mouse embryonic fibroblasts. As to the kind of experiment: Cell proliferation assay (MTT test). The format is cell-based. On the set-up: Survival of the tested cell line: dose or concentration left out as unconfirmed. Conditions: 24 h. How it is done: Balb/3T3 (ATCC CCL-163) mouse embryonic fibroblasts were cultured in DMEM medium supplemented with 10% fetal bovine serum, 1 mM L-glutamine, and a 1% penicillin/streptomycin solution and were used for our cytotoxicity studies. The cells were cultured at 37 °C and 5% CO2 until the cell density of 10^6 mL^−1 was obtained. Such cells were then seeded in 24-well tissue microplates (2 × 10^4 cells per well) and allowed to adhere overnight under the abovementioned conditions. Cytotoxicity tests were carried out on the cells prepared in this way.
The newly synthesized AABs (C9, C11, C13, and C15) were selected based on previous studies. They were analyzed at the concentrations of 0.25, 0.5, 1, 2, and 3 µM. […] The BALB-3T3 cells were treated with the prepared mixtures, dissolved in a complete cell culture medium, and then incubated for 24 h under the abovementioned conditions. Three independent replicates were performed for each combination of compounds.
The cytotoxic effect of the tested compounds in combination with β-AE was evaluated by measuring mitochondrial dehydrogenase activity using the MTT assay. After a 24 h incubation period, the medium supplemented with the 1mM MTT solution was added to each well. The cultures were continued for another 4 h under the conditions enriched with 5% CO2. After this time, the supernatant was collected, and MTT formazan was extracted from the cells using DMSO. The reaction was then stopped with Sörensen buffer (0.1 mol/L glycine; 0.1 mol/L NaCl; and pH 10.5). The percentage of cytotoxicity was calculated by comparing the absorbance values (λ = 560 nm) of the test sample to the control sample, which was untreated fibroblast cells. In the test performed, the negative control (C−) (sample not treated; PBS added) and positive control (C+) were fibroblast cells treated with 1% SDS [60].
Background: Tetrazolium dyes change colour on reduction, which living cells bring about.

In the next data set the test system is C. glabrata ATCC 90030. Put plainly: MIC90/MFC, EUCAST broth microdilution. The format is cell-based, Candida glabrata.
In data set [4] the test system is C. glabrata 2586 clinical strain. Put plainly: MIC90/MFC, EUCAST broth microdilution. Format: cell-based, Candida glabrata.
The test system of another data set is sheep red blood cells. Put plainly: Hemolysis assay. Format: cell-based. How it is done:
This test was performed according to a modified method. The hemolytic activity of the compounds was determined using sheep red blood cells. The blood was centrifuged (2000 RPM; 15 min) and rinsed 3 times with PBS. A total of 25 µL of erythrocytes for each sample were added to 500 µL of PBS to obtain the final concentration for the newly synthesized AABs: 0.25 µM, 0.5 µM; 1 µM, 2 µM; and 3 µM, and for β-AE, obtaining the following final concentrations: 100 µg/mL; 250 µg/mL; 500 µg/mL; 750 µg/mL; and 1000 µg/mL. The negative control (C−) consisted of erythrocytes suspended in PBS, and the positive control consisted of erythrocytes suspended in a 1% SDS solution. The samples were incubated for 2 h at 37 °C with shaking at 140 RPM. After this time, the blood cells were centrifuged (10 min; 2500 RPM), and 300 μL of the supernatant was transferred into a 96-well titration plate. Absorbance measurements were performed at a wavelength of λ = 540 nm. Measurements were performed in 10 repetitions. Finally, the values that were obtained from the samples treated with the test compound (OD test) were normalized relative to the positive (100% lysis; OD (C+)) and negative (untreated; OD (C−)) control samples to give the hemolysis ratio (HR) by using the following equation: HR (%) = OD test−OD (C−)/OD (C+) − OD (C−) × 100%.

Where [5] appears, read: Nakaseomyces glabratus, AAB alone, read-out: MIC converted to.

Converted amounts (≈) assume the structure as drawn. Where two headings read alike, the source gives them in different places.

`CCCCCCCCCC(=O)N(C)CCC[N+](C)(C)CC(=O)[O-]` [C9]: the MIC90 in data set [1] (AAB alone) is reported as 1 µM/mL; in the data set on C. glabrata ATCC 90030 (ATCC 90030, AAB alone) it was 3 µM/mL; in data set [4] (AAB alone), 3 µM/mL. The MIC in data set [1] (setting [5]) is 328 µg/mL (≈ 1000 µM); in the data set on C. glabrata ATCC 90030 (Nakaseomyces glabratus, ATCC90030, reference strain, AAB alone, read-out: MIC converted to), 985 µg/mL (≈ 3000 µM); in data set [4] (setting [5]), 985 µg/mL (≈ 3000 µM). The Biofilm surface area in the data set with C. glabrata 2853 biofilm (C9 combined with β-AE, optimal concentration configuration, control 84.52%) was found to be 1.12%; in data set [2] (C9 combined with β-AE, optimal concentration configuration, control 88.77%), 1.37%; in the data set on C. glabrata 2586 biofilm (C9 combined with β-AE, optimal concentration configuration, control 73.17%) it was 2.1%. The “Percentage of live cells” value in the data set on C. glabrata 2853 biofilm (C9 in combination with β-AE, 72 h, control 97.46%) is reported as 3.33%; in data set [2] (C9 in combination with β-AE, 72 h, control 98.35%) it was 1.64%; in the data set on C. glabrata 2586 biofilm (C9 in combination with β-AE, 72 h, control 97.99%), 1.93%. For the same compound, the viability at 1 µM was determined as 82.2% in the data set with C. glabrata 2853 biofilm (Nakaseomyces glabratus, 2853BIOFILM, AAB alone 1 μM, 72 h, read-out: Biofilm Viability [%] 2853 Live); 83.6% in data set [2] (Nakaseomyces glabratus, ATCC90030, AAB alone 1 μM, 72 h, read-out: Biofilm Viability [%] 90030 Live); 3.28% in the data set with C. glabrata 2586 biofilm (Nakaseomyces glabratus, 2586BIOFILM, AAB alone 1 μM, 72 h, read-out: Biofilm Viability [%] 2586 Live). Also, the viability at 2 µM worked out at 76.2% with C. glabrata 2853 biofilm (Nakaseomyces glabratus, 2853BIOFILM, AAB alone 2 μM, 72 h, read-out: Biofilm Viability [%] 2853 Live); 23.8% in data set [2] (Nakaseomyces glabratus, ATCC90030, AAB alone 2 μM, 72 h, read-out: Biofilm Viability [%] 90030 Live); 3.01% in the data set with C. glabrata 2586 biofilm (Nakaseomyces glabratus, 2586BIOFILM, AAB alone 2 μM, 72 h, read-out: Biofilm Viability [%] 2586 Live). Also, the viability at 3 µM in the data set on C. glabrata 2853 biofilm (Nakaseomyces glabratus, 2853BIOFILM, AAB alone 3 μM, 72 h, read-out: Biofilm Viability [%] 2853 Live) turned out to be 66.4%; in data set [2] (Nakaseomyces glabratus, ATCC90030, AAB alone 3 μM, 72 h, read-out: Biofilm Viability [%] 90030 Live) it was 21.4%; with C. glabrata 2586 biofilm (Nakaseomyces glabratus, 2586BIOFILM, AAB alone 3 μM, 72 h, read-out: Biofilm Viability [%] 2586 Live), 2.52%. In addition, the Surviving cells in data set [3] (0.25 to 3 µM/mL) is recorded as 100%. Moreover, in the data set with sheep red blood cells (all concentrations tested (0.25 up to 3 µM)), the Hemolysis entry is “not hemolytic at all concentrations tested”.

On to β-aescin, for which the values for the MFC (in data set [1]; with C. glabrata ATCC 90030 (ATCC 90030); in data set [4]) were 128 µg/mL, 256 µg/mL and 256 µg/mL, respectively. Besides, the values for the MIC90 (in data set [1]; in the data set on C. glabrata ATCC 90030 (ATCC 90030); in data set [4]) were 128 µg/mL, 128 µg/mL and 256 µg/mL, respectively. Besides, the “Biofilm Viability [%] 2853 Live” value with C. glabrata 2853 biofilm (1 MIC β-AE, 72 h) stood at 92.13%. Besides, the “Area of the biofilm” value is given as 45.63% with C. glabrata 2853 biofilm (β-AE 1 × MIC, 72 h, control 84.52%, listed as β-AE); 68.98% in data set [2] (β-AE 1 × MIC, 72 h, control 88.77%); 59.3% with C. glabrata 2586 biofilm (β-AE 1 × MIC, 72 h, control 73.17%, listed as β-AE). Moreover, the “Biofilm Viability [%] 90030 Live” value in data set [2] (1 MIC β-AE, 72 h) was 76.70%. Moreover, in the data set on C. glabrata 2586 biofilm (1 MIC β-AE, 72 h), the “Biofilm Viability [%] 2586 Live” value came to 9.33%. Also, in data set [3] (64–512), the “Survival of the tested cell line” value was 83–85%. Moreover, in the data set with sheep red blood cells (100 up to 1000 µg/mL, 2 h, 37 °C), the Hemolysis entry is “hemolytic at all concentrations tested”.

As a reminder, the MIC is the lowest concentration found to suppress growth. What is called viability is the share of living cells, or the viability signal relative to a control. The term MFC denotes the lowest tested concentration that kills the fungus rather than only halting it.
